Experimental data from US7071193B2, “7-amino-2-alkylthiopteridin-4-yl-amines for the treatment of chemokine-related diseases” (AstraZeneca AB, priority 2000, dated 2006).

Row | melting point [°C] | SMILES
1 | 251 to 253 | Nc1cnc2c(NC(CO)CO)nc(SCc3cccc(F)c3F)nc2n1 [Example 2, 2-[[7-amino-2-[[(2,3-difluorophenyl)methyl]thio]-4-pteridinyl]amino]-1,3-propanediol]
2 | 185 to 189 | CC[C@H](CO)Nc1nc(SCc2cccc(F)c2F)nc2nc(N)cnc12 [Example 4, (2R)-2-[[7-Amino-2-[[(2,3-difluorophenyl)methyl]thio]-4-pteridinyl]amino]-1-butanol]
3 | 220 to 227 | CC(CO)(CO)Nc1nc(SCc2cccc(F)c2F)nc2nc(N)cnc12 [Example 5, 2-[[7-Amino-2-[[(2,3-difluorophenyl)methyl]thio]-4-pteridinyl]amino]-2-methyl-1,3-propanediol]
4 | 224 to 226 | C[C@H](CO)Nc1nc(SCc2cccc(Cl)c2F)nc2nc(N)cnc12 [Example 13, (2R)-2-[[7-amino-2-[[(3-chloro-2-fluorophenyl)methyl]thio]-4-pteridinyl]amino]-1-propanol]
